In PubChem BioAssay AID248 (DTP/NCI, 2004):
Values joined by “and” are separate entries in the source; they are usually repeats but may differ in a detail not shown here. Equal values may be shown once. Inconclusive results and toxic doses are left out.

System: L1210 leukemia ip in BDF1 mice, survival T/C
Assay: NCI In Vivo Anticancer Drug Screen. Data for tumor model L1210 Leukemia (intraperitoneal) in B6D2F1 (BDF1) mice
Conditions: endpoint: mean survival time, higher = longer survival
Outline: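 In this screen, tumor-bearing mice given compound are compared to those given vehicle, and their survival values are reported as a treated-to-control quotient.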

[1] = dose: 50.0 mg/kg/injection, schedule: Q01DX001 (ip), vehicle: carboxymethylcellulose (CMC)
[2] = dose: 100.0 mg/kg/injection, schedule: Q01DX001 (ip), vehicle: saline
[3] = dose: 200.0 mg/kg/injection, schedule: Q01DX001 (ip), vehicle: saline
[4] = dose: 400.0 mg/kg/injection, schedule: Q01DX001 (ip), vehicle: saline
[5] = dose: 100.0 mg/kg/injection, schedule: Q04DX003 (ip), vehicle: saline with Tween-80
[6] = dose: 100.0 mg/kg/injection, schedule: Q01DX009 (ip), vehicle: saline with Tween-80
[7] = dose: 400.0 mg/kg/injection, schedule: Q04DX002 (ip), vehicle: saline with Tween-80
[8] = dose: 100.0 mg/kg/injection, schedule: Q04DX003 (ip), vehicle: saline
[9] = dose: 200.0 mg/kg/injection, schedule: Q04DX003 (ip), vehicle: saline
[10] = dose: 100.0 mg/kg/injection, schedule: Q01DX001 (ip), vehicle: Klucel (hydroxypropylcellulose) (HPC)
[11] = dose: 200.0 mg/kg/injection, schedule: Q01DX001 (ip), vehicle: Klucel (hydroxypropylcellulose) (HPC)
[12] = dose: 400.0 mg/kg/injection, schedule: Q01DX001 (ip), vehicle: Klucel (hydroxypropylcellulose) (HPC)
[13] = dose: 200.0 mg/kg/injection, schedule: Q04DX003 (ip), vehicle: saline with Tween-80
[14] = dose: 100.0 mg/kg/injection, schedule: Q01DX009 (ip), vehicle: Klucel (hydroxypropylcellulose) (HPC)
[15] = dose: 200.0 mg/kg/injection, schedule: Q01DX009 (ip), vehicle: Klucel (hydroxypropylcellulose) (HPC)
[16] = dose: 400.0 mg/kg/injection, schedule: Q01DX009 (ip), vehicle: Klucel (hydroxypropylcellulose) (HPC)
[17] = dose: 100.0 mg/kg/injection, schedule: Q04DX003 (ip), vehicle: Klucel (hydroxypropylcellulose) (HPC)
[18] = dose: 200.0 mg/kg/injection, schedule: Q04DX003 (ip), vehicle: Klucel (hydroxypropylcellulose) (HPC)
[19] = dose: 400.0 mg/kg/injection, schedule: Q04DX003 (ip), vehicle: Klucel (hydroxypropylcellulose) (HPC)
[20] = dose: 75.0 mg/kg/injection, schedule: Q01DX001 (ip), vehicle: saline
[21] = dose: 150.0 mg/kg/injection, schedule: Q01DX001 (ip), vehicle: saline

## O=C(CN1CC1)Nc1ccc(NC(=O)CN2CC2)cc1
dose: 1.5 mg/kg/injection, schedule: Q01DX009 (ip), vehicle: carboxymethylcellulose (CMC)
  T/C: 116 % of control and 117 % of control
dose: 7.3 mg/kg/injection, schedule: Q01DX001 (ip), vehicle: carboxymethylcellulose (CMC)
  T/C: 116 % of control
dose: 11.0 mg/kg/injection, schedule: Q01DX009 (ip), vehicle: carboxymethylcellulose (CMC)
  T/C: 168 % of control
dose: 11.1 mg/kg/injection, schedule: Q01DX009 (ip), vehicle: carboxymethylcellulose (CMC)
  T/C: 161 % of control
dose: 16.6 mg/kg/injection, schedule: Q01DX009 (ip), vehicle: carboxymethylcellulose (CMC)
  T/C: 96 % of control and 211 % of control
dose: 25.0 mg/kg/injection, schedule: Q01DX001 (ip), vehicle: carboxymethylcellulose (CMC)
  T/C: 152 % of control and 160 % of control
dose: 25.0 mg/kg/injection, schedule: Q01DX009 (ip), vehicle: carboxymethylcellulose (CMC)
  T/C: 103 % of control
dose: 37.5 mg/kg/injection, schedule: Q01DX001 (ip), vehicle: carboxymethylcellulose (CMC)
  T/C: 163 % of control
[1]
  T/C: 151 % of control

## COc1ccc(C(C)=O)c(O)c1OC
[2]
  T/C: 101 % of control
[3]
  T/C: 101 % of control
[4]
  T/C: 98 % of control

## Cc1cccc(C)c1N=C=S
dose: 25.0 mg/kg/injection, schedule: Q04DX003 (ip), vehicle: saline with Tween-80
  T/C: 100 % of control
dose: 50.0 mg/kg/injection, schedule: Q04DX003 (ip), vehicle: saline with Tween-80
  T/C: 96 % of control
[5]
  T/C: 98 % of control

## CCN(CC)CCCOC(=O)C(CCC(C)C)c1ccccc1C (stereo not drawn)
dose: 12.5 mg/kg/injection, schedule: Q01DX009 (ip), vehicle: saline
  T/C: 93 % of control
dose: 12.5 mg/kg/injection, schedule: Q04DX003 (ip), vehicle: saline
  T/C: 102 % of control
dose: 25.0 mg/kg/injection, schedule: Q01DX009 (ip), vehicle: saline
  T/C: 102 % of control
dose: 25.0 mg/kg/injection, schedule: Q04DX003 (ip), vehicle: saline
  T/C: 100 % of control
dose: 50.0 mg/kg/injection, schedule: Q01DX009 (ip), vehicle: saline
  T/C: 93 % of control
dose: 50.0 mg/kg/injection, schedule: Q04DX003 (ip), vehicle: saline
  T/C: 94 % of control

## CCCCCCCCCCCCOB(OCCCCCCCCCCCC)OCCCCCCCCCCCC
[1]
  T/C: 96 % of control
dose: 100.0 mg/kg/injection, schedule: Q01DX001 (ip), vehicle: carboxymethylcellulose (CMC)
  T/C: 102 % of control
[6]
  T/C: 98 % of control
dose: 200.0 mg/kg/injection, schedule: Q01DX001 (ip), vehicle: carboxymethylcellulose (CMC)
  T/C: 94 % of control
dose: 400.0 mg/kg/injection, schedule: Q01DX001 (ip), vehicle: carboxymethylcellulose (CMC)
  T/C: 94 % of control

## O=C1c2ccccc2C(=O)N1CNc1ccccc1Cl
[6]
  T/C: 93 % of control
dose: 100.0 mg/kg/injection, schedule: Q04DX002 (ip), vehicle: saline with Tween-80
  T/C: 98 % of control
dose: 200.0 mg/kg/injection, schedule: Q01DX009 (ip), vehicle: saline with Tween-80
  T/C: 93 % of control
dose: 200.0 mg/kg/injection, schedule: Q04DX002 (ip), vehicle: saline with Tween-80
  T/C: 91 % of control
dose: 400.0 mg/kg/injection, schedule: Q01DX009 (ip), vehicle: saline with Tween-80
  T/C: 100 % of control
[7]
  T/C: 88 % of control

## CC(=O)N1CCC(CC(O)Cc2ccnc3ccccc23)CC1 (stereo not drawn)
[8]
  T/C: 97 % of control
[9]
  T/C: 97 % of control

## Cc1ccccc1-n1c(O)c(N=Nc2ccc(Br)cc2)c(=O)n(-c2ccccc2)c1=S
[10]
  T/C: 94 % of control
[11]
  T/C: 94 % of control
[12]
  T/C: 91 % of control

## O=C(OCC(O)C(O)C(O)C(SCc1ccccc1)SCc1ccccc1)c1ccc([N+](=O)[O-])cc1 (stereo not drawn)
[2]
  T/C: 93 % of control
[3]
  T/C: 94 % of control
[4]
  T/C: 94 % of control

## COC(=O)C1(C)CSCCC1=O (stereo not drawn)
dose: 100.0 mg/kg/injection, schedule: Q01DX009 (ip), vehicle: other
  T/C: 94 % of control
dose: 200.0 mg/kg/injection, schedule: Q01DX009 (ip), vehicle: other
  T/C: 94 % of control
dose: 400.0 mg/kg/injection, schedule: Q01DX009 (ip), vehicle: other
  T/C: 99 % of control

## CCCCCCC(C)S(=O)(=O)c1ccc(C)cc1 (stereo not drawn)
[2]
  T/C: 87 % of control and 94 % of control
[3]
  T/C: 90 % of control and 91 % of control
[4]
  T/C: 94 % of control

## COc1ccc(NC(=O)Nc2cc(Cl)ccc2Cl)cc1
[5]
  T/C: 90 % of control
[13]
  T/C: 92 % of control
dose: 400.0 mg/kg/injection, schedule: Q04DX003 (ip), vehicle: saline with Tween-80
  T/C: 92 % of control

## CC(=O)Nc1cccc(C(=O)O)c1[N+](=O)[O-]
[14]
  T/C: 103 % of control
[8]
  T/C: 103 % of control
[15]
  T/C: 97 % of control
[9]
  T/C: 106 % of control
[16]
  T/C: 93 % of control
dose: 400.0 mg/kg/injection, schedule: Q04DX003 (ip), vehicle: saline
  T/C: 103 % of control

## CC1(c2ccsc2)NC(=O)NC1=O (stereo not drawn)
[2]
  T/C: 93 % of control
[3]
  T/C: 93 % of control
[4]
  T/C: 90 % of control

## NCC(=O)OC(c1ccccc1)(c1ccccc1)c1ccccc1
[14]
  T/C: 96 % of control
[17]
  T/C: 98 % of control
[15]
  T/C: 96 % of control
[18]
  T/C: 88 % of control
[19]
  T/C: 89 % of control

## C=C(Br)CN(C)C
dose: 50.0 mg/kg/injection, schedule: Q01DX009 (ip), vehicle: saline with Tween-80
  T/C: 117 % of control
[5]
  T/C: 96 % of control
[13]
  T/C: 102 % of control

## CCNP(=S)(OCC)OCC
[20]
  T/C: 98 % of control
[21]
  T/C: 89 % of control
dose: 300.0 mg/kg/injection, schedule: Q01DX001 (ip), vehicle: saline
  T/C: 96 % of control

## N#CSCC(=O)OC1CCCCC1
dose: 5.0 mg/kg/injection, schedule: Q01DX001 (ip), vehicle: saline
  T/C: 98 % of control
dose: 10.0 mg/kg/injection, schedule: Q01DX001 (ip), vehicle: saline
  T/C: 96 % of control
dose: 20.0 mg/kg/injection, schedule: Q01DX001 (ip), vehicle: saline
  T/C: 96 % of control
dose: 40.0 mg/kg/injection, schedule: Q01DX001 (ip), vehicle: saline
  T/C: 93 % of control

## CN(CCC(C#N)(CCC#N)c1ccccc1)Cc1ccccc1 (stereo not drawn)
[20]
  T/C: 102 % of control
[21]
  T/C: 102 % of control

## CSc1nc(NN)cc(-c2ccccc2)n1
dose: 100.0 mg/kg/injection, schedule: Q01DX Z (ip), vehicle: methylcellulose (MC)
  T/C: 98 % of control
dose: 200.0 mg/kg/injection, schedule: Q01DX Z (ip), vehicle: methylcellulose (MC)
  T/C: 90 % of control

## O=C1OC(c2ccccc2)=N/C1=C/c1cccs1
[14]
  T/C: 104 % of control
[17]
  T/C: 98 % of control
[15]
  T/C: 97 % of control
[18]
  T/C: 104 % of control
[16]
  T/C: 101 % of control
[19]
  T/C: 106 % of control

## CN(C)CCCN=NNc1nc[nH]c1C(N)=O
[10]
  T/C: 95 % of control
[17]
  T/C: 108 % of control
[11]
  T/C: 91 % of control
[18]
  T/C: 92 % of control
[12]
  T/C: 95 % of control

## COc1ccc(NS(=O)c2ccc(Oc3ccccc3)cc2)cc1 (stereo not drawn)
dose: 25.6 mg/kg/injection, schedule: Q04DX002 (ip), vehicle: saline with Tween-80
  T/C: 106 % of control
dose: 64.0 mg/kg/injection, schedule: Q04DX002 (ip), vehicle: saline with Tween-80
  T/C: 112 % of control
dose: 160.0 mg/kg/injection, schedule: Q04DX002 (ip), vehicle: saline with Tween-80
  T/C: 101 % of control
[7]
  T/C: 93 % of control

## CC(Br)C(=O)c1cccc2ccccc12 (stereo not drawn)
dose: 25.0 mg/kg/injection, schedule: Q04DX003 (ip), vehicle: Klucel (hydroxypropylcellulose) (HPC)
  T/C: 90 % of control
dose: 50.0 mg/kg/injection, schedule: Q04DX003 (ip), vehicle: Klucel (hydroxypropylcellulose) (HPC)
  T/C: 90 % of control
[17]
  T/C: 97 % of control and 98 % of control

## CC(=O)CC(=O)Nc1nc2ccccc2s1
[17]
  T/C: 92 % of control
[18]
  T/C: 103 % of control
[19]
  T/C: 97 % of control
